Calls of active or inactive are those of the source. No rule for the calls is given here.
Each compound was assayed on Clostridioides difficile clinical isolate growth, OD600, 24 h (assay: inhibitors of Clostridioides difficile proliferation – 4-point retest, confirmation (AID 1224921)).

Point of comparison: CCCN(C)C[C@H]1OCCCC[C@@H](C)Oc2ccc(NC(=O)Nc3ccc(C(F)(F)F)cc3)cc2C(=O)N([C@@H](C)CO)C[C@H]1C, AC50 10.5 µM. Against it:
- O=C(C[C@H]1CC[C@@H]2[C@H](COC[C@H](O)CN2C(=O)Nc2ccc(Cl)c(Cl)c2)O1)NCc1ccccc1 — lower, < 1.95 µM
- O=C(C[C@H]1CC[C@H]2[C@@H](COC[C@H](O)CN2C(=O)Nc2ccc(Cl)c(Cl)c2)O1)NCc1ccc(Cl)c(Cl)c1 — 12-fold lower, 0.886 µM
- CN(C)CC(=O)N1[C@H](C#N)[C@H](c2ccc(C#CC3CCCCC3)cc2)[C@H]1CO — within 1.5-fold, 14.2 µM
- C[C@@H]1CN([C@H](C)CO)C(=O)c2cc(C#CCc3ccccc3)cnc2O[C@H]1CN(C)CC1CCCC1 — 3-fold higher, 31 µM
- O=C(C[C@@H]1CC[C@H]2[C@@H](COC[C@@H](O)CN2C(=O)Nc2ccc(Cl)c(Cl)c2)O1)NCc1ccc(F)cc1 — 5.5-fold lower, 1.92 µM
- C[C@H](CO)N1C[C@H](C)[C@H](CN(C)C(=O)Nc2cccc3ccccc23)Oc2c(NC(=O)Nc3ccc(C(F)(F)F)cc3)cccc2C1=O — 3-fold higher, 31.7 µM
- C[C@@H]1CCCCO[C@@H](CN(C)CC2CC2)[C@H](C)CN([C@@H](C)CO)C(=O)c2cc(NC(=O)Nc3ccc(C(F)(F)F)cc3)ccc2O1 — 1.7-fold higher, 17.6 µM
- CCCNC(=O)N1[C@@H](C#N)[C@H](c2ccc(C#Cc3ccc(F)cc3)cc2)[C@@H]1CO — 3.5-fold higher, 36.3 µM
- CCCN(C)C[C@@H]1OCCCC[C@H](C)Oc2ccc(NC(=O)Nc3ccc(C(F)(F)F)cc3)cc2C(=O)N([C@@H](C)CO)C[C@@H]1C — within 1.5-fold, 12.5 µM
- CO[C@@H]1CN(C)C(=O)c2ccc(NC(=O)C3CCC3)cc2OC[C@@H](C)N(C(=O)Nc2ccc(C(F)(F)F)cc2)C[C@H]1C — within 1.5-fold, 11.6 µM
- CO[C@@H]1CN(C)C(=O)c2cc(NC(=O)Nc3cc(Cl)cc(Cl)c3)ccc2OC[C@H](C)NC[C@H]1C — 2.1-fold lower, 5.04 µM
- CO[C@H]1CN(C)C(=O)c2cc(NC(=O)Nc3ccc(Cl)c(Cl)c3)ccc2OC[C@H](C)NC[C@H]1C — within 1.5-fold, 9.51 µM
- O=C(C[C@H]1CC[C@H]2[C@@H](COC[C@@H](O)CN2C(=O)Nc2ccc(Cl)c(Cl)c2)O1)NCc1ccccc1 — 2.8-fold lower, 3.72 µM
- O=C(C[C@@H]1CC[C@@H]2[C@H](COC[C@@H](O)CN2S(=O)(=O)c2ccccc2)O1)NCC1CCCCC1 — within 1.5-fold, 15.2 µM
- COc1ccc(C#Cc2cnc3c(c2)C(=O)N([C@@H](C)CO)C[C@@H](C)[C@H](CN(C)CC2CCCC2)O3)cc1 — within 1.5-fold, 13.1 µM
- CN(C)CC(=O)N[C@@H]1CC[C@@H](CCNC(=O)Nc2ccc(C(F)(F)F)cc2)O[C@H]1CO — 2.3-fold lower, 4.63 µM
- CNC(=O)C[C@@H]1CC[C@@H]2[C@H](COC[C@H](O)CN2C(=O)Nc2ccc(Cl)c(Cl)c2)O1 — 3.4-fold lower, 3.06 µM
- C[C@@H]1CN([C@@H](C)CO)S(=O)(=O)c2ccc(/C=C/c3ccccc3)cc2O[C@H]1CN(C)Cc1ccc(C(=O)O)cc1 — 7.8-fold lower, 1.35 µM
- C[C@@H]1CN([C@@H](C)CO)C(=O)c2cc(NS(=O)(=O)c3ccc(Cl)cc3)ccc2O[C@@H](C)CCCCO[C@H]1CN(C)CC1CCCCC1 — within 1.5-fold, 13.1 µM
- O=C(C[C@@H]1CC[C@@H]2[C@H](COC[C@@H](O)CN2C(=O)Nc2cc(Cl)cc(Cl)c2)O1)N1CCOCC1 — within 1.5-fold, 14.2 µM
- COc1ccccc1CNC(=O)C[C@H]1CC[C@H]2[C@@H](COC[C@@H](O)CN2C(=O)Nc2ccc(C(F)(F)F)cc2)O1 — 4.4-fold lower, 2.4 µM
- O=C(C[C@@H]1CC[C@H]2[C@@H](COC[C@H](O)CN2C(=O)Nc2ccc(Cl)c(Cl)c2)O1)NCc1ccncc1 — 2.8-fold lower, 3.77 µM
- O=C(C[C@H]1CC[C@@H]2[C@H](COC[C@@H](O)CN2C(=O)Nc2ccc(Cl)c(Cl)c2)O1)NCc1ccncc1 — 2.6-fold lower, 4.06 µM
- C[C@@H]1CN([C@@H](C)CO)C(=O)c2cccc(NC(=O)Nc3ccc(C(F)(F)F)cc3)c2O[C@@H]1CN(C)Cc1ccc(-c2ccccc2)cc1 — lower, < 0.5 µM
- CO[C@@H](CN(C)C(=O)C1CC1)[C@@H](C)CN(C(=O)Nc1ccc(C(F)(F)F)cc1)[C@H](C)CO — within 1.5-fold, 14.7 µM
- COc1ccc(S(=O)(=O)Nc2cccc3c2O[C@H](CN(C)Cc2ccc(Oc4ccccc4)cc2)[C@H](C)CN([C@@H](C)CO)C3=O)cc1 — 2.9-fold lower, 3.67 µM
- CC(=O)N[C@H]1CC[C@H](CCNC(=O)Nc2ccc(C(F)(F)F)cc2)O[C@@H]1CO — within 1.5-fold, 9.65 µM
- O=C(NCC[C@@H]1CC[C@@H](NC(=O)c2cccnc2)[C@@H](CO)O1)Nc1ccc(C(F)(F)F)cc1 — within 1.5-fold, 13.8 µM
- O=C(C[C@H]1CC[C@@H]2[C@H](COC[C@H](O)CN2C(=O)Nc2ccc(C(F)(F)F)cc2)O1)NCC1CCCCC1 — 8.7-fold lower, 1.21 µM
- O=C(NCC[C@@H]1CC[C@H](NC(=O)C2CCCCC2)[C@H](CO)O1)Nc1ccc(Cl)cc1 — 2.9-fold higher, 30 µM
- O=C(C[C@@H]1CC[C@H]2[C@@H](COC[C@H](O)CN2C(=O)Nc2ccc(Cl)c(Cl)c2)O1)NCc1ccc(F)cc1 — 8.1-fold lower, 1.3 µM
- C[C@@H]1CN([C@@H](C)CO)C(=O)Cc2cc(NS(C)(=O)=O)ccc2O[C@H]1CN(C)Cc1ccc(Cl)c(Cl)c1 — within 1.5-fold, 8.49 µM
- O=C(C[C@H]1CC[C@H]2[C@@H](COC[C@H](O)CN2C(=O)Nc2ccc(C(F)(F)F)cc2)O1)NCC1CCCCC1 — 4.3-fold lower, 2.45 µM
- COc1ccccc1CNC(=O)C[C@@H]1CC[C@@H]2[C@H](COC[C@H](O)CN2C(=O)Nc2ccc(C(F)(F)F)cc2)O1 — 17-fold lower, 0.614 µM
- CO[C@H](CN(C)S(=O)(=O)c1cn(C)cn1)[C@H](C)CN(C(=O)Nc1ccc(C(F)(F)F)cc1)[C@@H](C)CO — within 1.5-fold, 7.66 µM
- C[C@@H]1CN([C@H](C)CO)S(=O)(=O)c2ccc(C#CC3CCCCC3)cc2O[C@@H]1CN(C)C — 1.6-fold higher, 16.9 µM
- CO[C@H](CN(C)Cc1cc(F)ccc1F)[C@H](C)CN(C(=O)Nc1ccc(C(F)(F)F)cc1)[C@@H](C)CO — within 1.5-fold, 7.48 µM
- CCNC(=O)C[C@H]1CC[C@@H]2[C@H](COC[C@@H](O)CN2C(=O)Nc2ccc(Cl)c(Cl)c2)O1 — 2.5-fold lower, 4.25 µM
- CCNC(=O)C[C@@H]1CC[C@@H]2[C@H](COC[C@H](O)CN2C(=O)Nc2ccc(C(F)(F)F)cc2)O1 — within 1.5-fold, 11.8 µM
- O=C(C[C@H]1CC[C@H]2[C@@H](COC[C@@H](O)CN2C(=O)Nc2cc(Cl)cc(Cl)c2)O1)N1CCOCC1 — within 1.5-fold, 9.57 µM
- O=C(C[C@H]1CC[C@H]2[C@@H](COC[C@H](O)CN2S(=O)(=O)c2ccccc2)O1)NCC1CCCCC1 — within 1.5-fold, 13.5 µM
- COc1ccc(NC(=O)Nc2cccc3c2O[C@H](CN(C)Cc2ccc(C(F)(F)F)cc2)[C@H](C)CN([C@@H](C)CO)C3=O)cc1 — 1.5-fold higher, 15.9 µM
- O=C(C[C@H]1CC[C@H]2[C@@H](COC[C@H](O)CN2C(=O)Nc2cc(Cl)cc(Cl)c2)O1)N1CCCCC1 — 3.2-fold lower, 3.29 µM
- CO[C@H]1CN(C)C(=O)c2ccc(NC(=O)Nc3cc(Cl)cc(Cl)c3)cc2OC[C@H](C)NC[C@H]1C — within 1.5-fold, 14 µM
- O=C(C[C@H]1CC[C@H]2[C@@H](COC[C@H](O)CN2C(=O)Nc2cc(Cl)cc(Cl)c2)O1)N1CCOCC1 — 2.6-fold lower, 4.04 µM
- CO[C@@H](CN(C)C(=O)C1CCOCC1)[C@H](C)CN(C(=O)Nc1ccc(C(F)(F)F)cc1)[C@@H](C)CO — 3-fold lower, 3.45 µM
- CO[C@H](CN(C)C(=O)C1CC1)[C@@H](C)CN(C(=O)Nc1ccc(C(F)(F)F)cc1)[C@H](C)CO — 2.9-fold lower, 3.59 µM
- Cc1noc(C)c1NC(=O)Nc1cccc2c1O[C@H](CN(C)Cc1ccc(Oc3ccccc3)cc1)[C@H](C)CN([C@@H](C)CO)C2=O — within 1.5-fold, 9.38 µM
- O=C(C[C@@H]1CC[C@@H]2[C@H](COC[C@@H](O)CN2C(=O)Nc2ccc(Cl)c(Cl)c2)O1)NCc1ccncc1 — 2.6-fold lower, 4.07 µM
- C[C@H]1CN([C@@H](C)CO)C(=O)c2cc(C#CCc3ccccc3)cnc2O[C@@H]1CN(C)CC1CCCC1 — 2.8-fold higher, 29.7 µM
- CO[C@H]1CN(C)C(=O)c2ccc(NC(=O)Nc3ccc(Cl)c(Cl)c3)cc2OC[C@H](C)NC[C@@H]1C — 8.8-fold lower, 1.2 µM
- CCCNC(=O)C[C@H]1CC[C@H]2[C@@H](COC[C@@H](O)CN2C(=O)Nc2ccc(Cl)c(Cl)c2)O1 — 3.8-fold lower, 2.78 µM
- C[C@@H]1CN([C@H](C)CO)C(=O)c2cc(NC(=O)Nc3ccc(C(F)(F)F)cc3)ccc2O[C@@H](C)CCCCO[C@@H]1CN(C)CC1CCCCC1 — within 1.5-fold, 14.6 µM
- O=C(NCC[C@@H]1CC[C@H](NC(=O)c2cccnc2)[C@H](CO)O1)Nc1ccc(C(F)(F)F)cc1 — 3.5-fold lower, 3.01 µM
- O=C(C[C@@H]1CC[C@@H]2[C@H](COC[C@H](O)CN2C(=O)Nc2cc(Cl)cc(Cl)c2)O1)N1CCOCC1 — 1.6-fold lower, 6.6 µM
- CCNC(=O)C[C@H]1CC[C@H]2[C@@H](COC[C@@H](O)CN2C(=O)Nc2ccc(Cl)c(Cl)c2)O1 — 2.7-fold lower, 3.9 µM
- CCS(=O)(=O)N1[C@H](CO)[C@H](c2ccc(C#CCC3CCCC3)cc2)[C@@H]1C#N — 1.9-fold higher, 19.8 µM
- C[C@@H]1CN([C@@H](C)CO)C(=O)Cc2cc(NC(=O)Nc3ccc(C(F)(F)F)cc3)ccc2O[C@H]1CN(C)Cc1ccccc1 — 1.7-fold higher, 17.9 µM

For N#C[C@H]1[C@H](c2ccc(C#Cc3ccc(F)cc3)cc2)[C@@H](CO)N1C(=O)C1CCCC1, the AC50 was > 70 µM (inactive).
In the case of CO[C@H]1CN(C)C(=O)c2ccc(NC(=O)c3nc4ccccc4s3)cc2OC[C@H](C)N(Cc2ccncc2)C[C@@H]1C, the AC50 was > 60 µM (inactive).
In the case of CO[C@@H]1CN(C)C(=O)c2cc(NC(=O)Nc3ccc(F)cc3)ccc2OC[C@@H](C)NC[C@@H]1C, the AC50 was > 60 µM (inactive).
With C[C@@H]1CN([C@H](C)CO)C(=O)c2cc(NC(=O)Nc3cccc4ccccc34)ccc2O[C@@H](C)CCCCO[C@@H]1CN(C)CC1CCCCC1 the AC50 was > 60 µM (inactive).
With O=C(Nc1ccc(-c2ccccc2)cc1)[C@@H]1[C@@H](CO)[C@@H]2Cn3c(cccc3=O)[C@@H]2N1CC1CCCCC1 the AC50 was > 60 µM (inactive).
C[C@@H]1CN([C@@H](C)CO)C(=O)c2c(c3ccccc3n2C)-c2ccccc2CO[C@@H]1CN(C)Cc1ccncc1 was tested, and the AC50 was > 60 µM (inactive).
CO[C@H]1CN(C)C(=O)c2cc(NC(C)=O)ccc2OC[C@@H](C)N(CCc2ccccc2)C[C@H]1C was tested, and the AC50 was > 60 µM (inactive).
With O=C(C[C@H]1CC[C@H]2[C@@H](COC[C@@H](O)CN2C(=O)c2cnccn2)O1)NCc1ccc(Cl)cc1 the AC50 was > 60 µM (inactive).
C[C@H](C(=O)N(C)C[C@@H]1OCc2ccccc2-c2ccccc2C(=O)N([C@H](C)CO)C[C@@H]1C)c1ccccc1 was tested, and the AC50 was > 60 µM (inactive).
C[C@@H]1CCCCO[C@@H](CN(C)Cc2ccc3c(c2)OCO3)[C@H](C)CN([C@@H](C)CO)C(=O)c2cc(NC(=O)Nc3ccc(C(F)(F)F)cc3)ccc2O1 was tested, and the AC50 was > 60 µM (inactive).
C[C@@H]1CCCCO[C@@H](CN(C)Cc2ccccc2)[C@H](C)CN([C@@H](C)CO)C(=O)c2cc(NC(=O)Nc3ccc(F)cc3)ccc2O1 was tested, and the AC50 was > 16 µM (inactive).
For COc1ccccc1S(=O)(=O)N(C)C[C@H]1OCc2ccccc2-c2c(n(C)c3ccccc23)C(=O)N([C@H](C)CO)C[C@@H]1C, the AC50 was > 60 µM (inactive).
CCCNC(=O)Nc1ccc2c(c1)C(=O)N(C)C[C@@H](OC)[C@@H](C)CN(C)[C@H](C)CO2 was tested, and the AC50 was > 60 µM (inactive).
